# Source: ChEMBL document CHEMBL5465560, “Selectivity Literature for EUbOPEN Chemogenomic Library” (2024)
# Experiments:
# [1] = target: T1, Mitogen-activated protein kinase 12 (Homo sapiens) (UniProt P53778); test: Selectivity interaction (KinomeScan (DiscoverX)) EUB0001049a MAPK12; conditions: at 1 µM
# T1 sequence (whole entry): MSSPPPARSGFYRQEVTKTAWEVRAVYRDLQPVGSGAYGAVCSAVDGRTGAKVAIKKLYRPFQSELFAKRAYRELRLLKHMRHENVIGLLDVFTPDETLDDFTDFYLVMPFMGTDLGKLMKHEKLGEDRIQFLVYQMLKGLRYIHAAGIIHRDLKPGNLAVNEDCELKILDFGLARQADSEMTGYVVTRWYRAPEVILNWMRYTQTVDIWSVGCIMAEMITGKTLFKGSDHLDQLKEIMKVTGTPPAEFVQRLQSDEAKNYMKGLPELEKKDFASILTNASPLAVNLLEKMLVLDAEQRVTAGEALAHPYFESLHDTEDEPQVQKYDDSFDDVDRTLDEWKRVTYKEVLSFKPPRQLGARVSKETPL
# [2] = target: Tyrosine-protein kinase Yes (Homo sapiens) (UniProt P07947); test: Selectivity interaction (KinomeScan (DiscoverX)) EUB0000045b YES1
# [3] = target: T2, Tyrosine-protein kinase Mer (Homo sapiens) (UniProt Q12866); test: Selectivity interaction (KinomeScan (DiscoverX)) EUB0001079a MERTK; conditions: at 1 µM
# T2 sequence (whole entry): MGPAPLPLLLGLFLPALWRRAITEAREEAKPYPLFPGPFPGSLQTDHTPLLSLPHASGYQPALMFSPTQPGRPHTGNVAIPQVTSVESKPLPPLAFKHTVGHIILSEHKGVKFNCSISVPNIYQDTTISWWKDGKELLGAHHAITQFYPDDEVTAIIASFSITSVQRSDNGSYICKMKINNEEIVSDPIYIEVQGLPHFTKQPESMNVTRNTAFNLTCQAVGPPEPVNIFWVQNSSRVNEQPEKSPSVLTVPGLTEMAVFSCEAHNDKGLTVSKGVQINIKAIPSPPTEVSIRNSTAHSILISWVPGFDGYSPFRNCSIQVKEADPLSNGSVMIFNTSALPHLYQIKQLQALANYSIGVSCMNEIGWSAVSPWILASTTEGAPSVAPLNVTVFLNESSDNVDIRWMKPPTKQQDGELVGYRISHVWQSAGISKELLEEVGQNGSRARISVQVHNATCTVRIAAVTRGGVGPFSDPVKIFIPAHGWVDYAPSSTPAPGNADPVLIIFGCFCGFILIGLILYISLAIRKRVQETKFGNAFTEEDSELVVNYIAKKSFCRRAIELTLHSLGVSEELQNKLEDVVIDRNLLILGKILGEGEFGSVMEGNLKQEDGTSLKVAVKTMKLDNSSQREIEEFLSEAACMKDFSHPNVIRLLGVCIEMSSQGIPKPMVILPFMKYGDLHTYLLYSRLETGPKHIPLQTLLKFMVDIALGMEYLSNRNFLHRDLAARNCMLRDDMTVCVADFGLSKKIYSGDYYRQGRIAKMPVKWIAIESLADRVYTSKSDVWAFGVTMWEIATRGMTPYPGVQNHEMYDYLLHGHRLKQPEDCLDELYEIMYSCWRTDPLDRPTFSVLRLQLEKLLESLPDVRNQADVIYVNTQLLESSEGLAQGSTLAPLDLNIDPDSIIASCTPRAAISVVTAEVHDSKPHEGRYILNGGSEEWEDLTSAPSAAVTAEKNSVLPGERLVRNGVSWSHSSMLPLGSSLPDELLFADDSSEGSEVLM
# [4] = target: T3, Protein arginine N-methyltransferase 7 (Homo sapiens) (UniProt Q9NVM4); conditions: at 10 µM
# T3 sequence (whole entry): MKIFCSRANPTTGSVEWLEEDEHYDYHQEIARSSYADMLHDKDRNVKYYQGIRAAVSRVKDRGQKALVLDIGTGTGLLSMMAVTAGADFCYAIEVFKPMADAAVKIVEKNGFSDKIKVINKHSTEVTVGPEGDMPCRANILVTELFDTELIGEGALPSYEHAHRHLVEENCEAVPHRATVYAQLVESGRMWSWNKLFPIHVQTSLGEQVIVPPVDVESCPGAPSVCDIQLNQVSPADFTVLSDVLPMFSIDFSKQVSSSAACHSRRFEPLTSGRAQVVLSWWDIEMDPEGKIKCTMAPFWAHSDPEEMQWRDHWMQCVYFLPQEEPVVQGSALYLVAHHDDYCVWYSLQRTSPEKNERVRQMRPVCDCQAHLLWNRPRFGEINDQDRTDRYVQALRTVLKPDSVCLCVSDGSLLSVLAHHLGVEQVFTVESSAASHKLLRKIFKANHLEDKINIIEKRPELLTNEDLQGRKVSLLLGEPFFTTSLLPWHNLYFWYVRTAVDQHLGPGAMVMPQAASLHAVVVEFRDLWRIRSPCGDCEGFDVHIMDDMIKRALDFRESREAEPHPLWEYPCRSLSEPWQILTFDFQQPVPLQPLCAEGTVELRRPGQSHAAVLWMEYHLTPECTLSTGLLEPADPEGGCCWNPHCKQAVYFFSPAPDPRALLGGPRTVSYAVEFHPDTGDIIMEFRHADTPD
# [5] = target: Serine/threonine-protein kinase PLK2 (Homo sapiens, UniProt Q9NYY3); test: Selectivity interaction (KinomeScan (DiscoverX)) EUB0000229b PLK2; conditions: at 10 µM
# [6] = target: T4, Casein kinase I isoform alpha-like (Homo sapiens) (UniProt Q8N752); test: Selectivity interaction (KinomeScan (DiscoverX)) EUB0000092b CSNK1A1L; conditions: at 10 µM
# T4 sequence (whole entry): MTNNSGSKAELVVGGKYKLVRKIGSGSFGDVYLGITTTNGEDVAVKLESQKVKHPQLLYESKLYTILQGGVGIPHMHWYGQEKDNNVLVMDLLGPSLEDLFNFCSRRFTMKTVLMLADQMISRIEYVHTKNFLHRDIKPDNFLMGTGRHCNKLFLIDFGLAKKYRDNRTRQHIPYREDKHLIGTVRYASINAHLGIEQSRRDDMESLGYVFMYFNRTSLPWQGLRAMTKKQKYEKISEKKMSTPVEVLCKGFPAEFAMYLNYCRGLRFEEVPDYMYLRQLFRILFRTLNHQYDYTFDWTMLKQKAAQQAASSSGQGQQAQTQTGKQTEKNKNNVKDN
# [7] = target: Serine/threonine-protein kinase SIK3 (Homo sapiens) (UniProt Q9Y2K2); conditions: at 10 µM
# Chain of Serine/threonine-protein kinase SIK3 (Homo sapiens) (Q9Y2K2 whole entry, looked up): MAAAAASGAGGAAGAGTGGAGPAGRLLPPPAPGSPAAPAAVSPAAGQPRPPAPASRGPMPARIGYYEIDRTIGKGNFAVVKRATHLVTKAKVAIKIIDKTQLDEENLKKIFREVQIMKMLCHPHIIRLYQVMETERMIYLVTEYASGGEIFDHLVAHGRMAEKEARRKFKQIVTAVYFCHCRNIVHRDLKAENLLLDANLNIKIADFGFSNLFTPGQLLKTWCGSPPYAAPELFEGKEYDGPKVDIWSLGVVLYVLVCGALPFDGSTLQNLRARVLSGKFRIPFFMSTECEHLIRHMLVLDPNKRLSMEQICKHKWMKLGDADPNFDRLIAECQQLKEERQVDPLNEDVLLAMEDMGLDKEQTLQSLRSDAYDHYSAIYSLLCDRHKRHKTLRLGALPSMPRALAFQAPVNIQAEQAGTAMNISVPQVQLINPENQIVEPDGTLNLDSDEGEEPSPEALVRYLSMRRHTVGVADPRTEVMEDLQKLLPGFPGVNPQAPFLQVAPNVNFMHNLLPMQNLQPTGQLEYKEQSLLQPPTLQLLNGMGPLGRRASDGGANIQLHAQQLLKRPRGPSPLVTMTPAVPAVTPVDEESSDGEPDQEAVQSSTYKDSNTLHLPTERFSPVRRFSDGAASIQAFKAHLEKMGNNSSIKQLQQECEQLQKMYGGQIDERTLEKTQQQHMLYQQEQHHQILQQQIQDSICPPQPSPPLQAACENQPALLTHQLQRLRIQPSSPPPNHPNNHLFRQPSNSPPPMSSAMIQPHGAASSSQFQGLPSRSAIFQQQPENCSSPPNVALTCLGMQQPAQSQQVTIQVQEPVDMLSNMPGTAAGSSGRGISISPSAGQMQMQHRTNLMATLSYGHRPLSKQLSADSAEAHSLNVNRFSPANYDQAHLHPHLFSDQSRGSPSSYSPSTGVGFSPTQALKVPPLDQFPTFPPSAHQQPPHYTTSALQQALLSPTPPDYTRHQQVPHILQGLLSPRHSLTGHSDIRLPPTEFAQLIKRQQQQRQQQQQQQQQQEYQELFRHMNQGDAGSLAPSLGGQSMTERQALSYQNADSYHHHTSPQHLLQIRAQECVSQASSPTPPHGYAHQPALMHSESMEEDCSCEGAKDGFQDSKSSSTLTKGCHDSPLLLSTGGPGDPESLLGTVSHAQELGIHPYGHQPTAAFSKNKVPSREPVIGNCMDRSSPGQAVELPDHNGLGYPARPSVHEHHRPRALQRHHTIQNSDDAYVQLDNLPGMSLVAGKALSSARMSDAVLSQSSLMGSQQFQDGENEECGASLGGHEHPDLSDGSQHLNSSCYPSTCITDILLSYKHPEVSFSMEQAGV
# Chain of Tyrosine-protein kinase Yes (Homo sapiens) (P07947 2-543 limits assumed): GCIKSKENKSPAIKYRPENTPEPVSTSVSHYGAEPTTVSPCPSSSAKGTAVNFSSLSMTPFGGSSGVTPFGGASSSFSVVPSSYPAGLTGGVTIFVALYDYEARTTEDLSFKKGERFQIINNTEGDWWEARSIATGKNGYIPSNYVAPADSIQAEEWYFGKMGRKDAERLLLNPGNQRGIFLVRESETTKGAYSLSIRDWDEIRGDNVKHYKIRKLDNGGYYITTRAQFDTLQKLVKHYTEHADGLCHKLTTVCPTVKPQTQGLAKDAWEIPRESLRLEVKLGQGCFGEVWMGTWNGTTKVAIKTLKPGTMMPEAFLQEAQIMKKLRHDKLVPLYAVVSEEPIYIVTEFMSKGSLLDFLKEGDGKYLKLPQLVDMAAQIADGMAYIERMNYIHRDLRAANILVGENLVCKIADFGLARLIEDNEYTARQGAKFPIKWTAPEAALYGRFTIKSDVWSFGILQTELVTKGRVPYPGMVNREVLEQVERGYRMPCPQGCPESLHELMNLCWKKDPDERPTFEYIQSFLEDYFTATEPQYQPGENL
# Chain of Serine/threonine-protein kinase PLK2 (Q9NYY3 whole entry, looked up, canonical isoform): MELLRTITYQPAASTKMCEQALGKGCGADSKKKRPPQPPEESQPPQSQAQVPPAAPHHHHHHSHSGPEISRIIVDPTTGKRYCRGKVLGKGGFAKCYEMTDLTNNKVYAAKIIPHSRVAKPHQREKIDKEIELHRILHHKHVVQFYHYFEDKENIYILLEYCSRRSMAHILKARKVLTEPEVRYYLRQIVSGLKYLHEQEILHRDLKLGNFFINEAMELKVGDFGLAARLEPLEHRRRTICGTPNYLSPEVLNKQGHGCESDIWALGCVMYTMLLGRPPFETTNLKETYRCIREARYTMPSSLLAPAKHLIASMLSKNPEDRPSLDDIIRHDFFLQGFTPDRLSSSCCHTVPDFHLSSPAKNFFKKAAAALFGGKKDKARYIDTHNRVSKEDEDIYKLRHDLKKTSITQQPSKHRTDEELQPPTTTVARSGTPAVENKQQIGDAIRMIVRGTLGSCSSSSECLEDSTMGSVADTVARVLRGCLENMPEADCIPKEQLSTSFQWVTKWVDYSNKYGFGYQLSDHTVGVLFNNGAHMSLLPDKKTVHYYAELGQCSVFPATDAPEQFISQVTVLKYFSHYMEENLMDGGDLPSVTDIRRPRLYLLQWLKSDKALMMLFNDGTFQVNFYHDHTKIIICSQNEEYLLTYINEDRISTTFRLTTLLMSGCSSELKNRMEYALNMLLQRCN
structure (smiles),measurement,setting,value
COc1cc(Nc2nc(C)cc(-c3cnn4nc(OC)ccc34)n2)cc(C(F)(F)F)c1,% of control,[1],71%
C=CC(=O)Nc1cc(-n2c(=O)ccc3cnc4ccc(-c5ccc(NS(C)(=O)=O)cc5)cc4c32)ccc1C,% of control,[2]; at 1 µM,74%
same,% of control,[2]; at 10 µM,100%
Nc1cnc(N2CCc3cc(S(=O)(=O)Nc4c(F)cc(Cl)cc4F)cc(N4CCCC4=O)c32)nc1 [TP-020n],% of control,[3],100%
CNCCN1CCC(c2cc(CN(C)C(=O)c3cccc(Oc4ccccc4)c3)ccn2)CC1,% activity,[4],> 90%
COc1cc(N(C)c2ccnc3ccc(C(F)(F)F)cc23)cc(OC)c1OC,% binding,[5],88%
CCC(=O)N1CCN(c2ccc(-n3c(=O)ccc4cnc5ccc(-c6cnc7ccccc7c6)cc5c43)cc2C(F)(F)F)CC1,% of control,[6],81%
Cc1cc([C@@H](C)Nc2ccccc2C(=O)O)c2nc(N3CCOCC3)cc(=O)n2c1 [AZD-6482],% of control,[7],95%
